Data as given in patent publication US20260109732A1, “LIPID AMINES” (ModernaTX, Inc., priority 2021, published 2026).
Structures can show the parent of a compound that is named as a salt.

Assays:
[1] = Diameter and PDI from DLS measurements of mRNA nanoparticles with lipid amines; assay type: physicochemical
Summary of the method: (§1)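 Ionizable lipid nanoparticles (IL1:DSPC:cholesterol:PEG-DMG-2K) formed by vortex mixing at pH 4, loaded with luciferase or CFTR mRNA at N:P 4.93, neutralized with TRIS pH 8.12, then modified with lipid amine SA50 at pH 7.5. Particle diameter and PDI read by DLS; mRNA encapsulation by Ribogreen assay.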

[2] = Encapsulation of mRNA nanoparticles with lipid amines using Ribogreen assay; assay type: physicochemical
Summary of the method: as §1

HeLa cells [3] = experiment: Luciferase Protein Expression Assay in HeLa Cells; assay type: cell-based, Human; conditions: LNPs encapsulating Luciferase mRNA, 25 ng per well, N=4 wells; 5 h serum-free then 24 h; ONE-Glo
Summary of the method: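 HeLa cells received LNPs carrying luciferase mRNA (25 ng per well) or PBS in serum-free MEM for 5 h, then complete MEM for a further 24 h. Luciferase then read by ONE-Glo luminescence after lysis and reported as average RLU of 4 replicate wells.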

HeLa cells [4] = experiment: CFTR Protein Expression Assay in HeLa Cells; assay type: cell-based, Human; conditions: LNPs encapsulating CFTR mRNA, N=4 wells; 5 h serum-free then 24 h; immunofluorescence vs PBS control
Summary of the method: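 HeLa cells dosed with CFTR mRNA LNPs (70 mM NaCl final buffer matrix) in serum-free MEM for 5 h, then complete MEM for 24 h. Fixed cells immunostained with anti-CFTR monoclonal and Alexa 488 secondary, imaged confocally; CFTR intensity per cell expressed as fold-change versus PBS buffer control, N=4 wells.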

[5] = CFTR mRNA nanoparticle with lipid amine
[6] = Luciferase mRNA nanoparticle modified with lipid amine

CCC(N)(CC)CCNCCCCN(CCC(N)(CC)CC)C(=O)CCCC(=O)O[C@H]1CC[C@@]2(C)C(=CC[C@H]3[C@@H]4CC[C@H]([C@H](C)CCCC(C)C)[C@@]4(C)CC[C@@H]32)C1 [SA185, (3S,8S,9S,10R,13R,14S,17R)-10,13-dimethyl-17-((R)-6-methylheptan-2-yl)-2,3,4,7,8,9,10,11,12,13,14,15,16,17-tetradecahydro-1H-cyclopenta[a]phenanthren-3-yl 5-((3-amino-3-ethylpentyl)(4-((3-amino-3-ethylpentyl)amino)butyl)amino)-5-oxopentanoate trihydrochloride]
Diameter (nm) [1, 5]: 73 nm | PDI [1, 5]: 0.16 | Diameter (nm) [1, 6]: 75 nm | PDI [1, 6]: 0.16 | % Encapsulation (Ribogreen) [2, 5]: 98.6% | % Encapsulation (Ribogreen) [2, 6]: 99.4% | Average Relative Light Units ± Standard Deviation (HeLa cells [3]): 36168.3 ± 7638.9 Relative Light Units | Average fold-change in CFTR signal intensity per cell compared to buffer control ± standard deviation (HeLa cells [4]): 14.2 ± 1.0 fold-change
